“Also recorded” adds a separate entry of the source.
Experiments:
[1] = system: A. palmeri female plants; assay: Exp 289: seed set of female plants pollinated 1.5 hours to 10 days after Clethodim; type: in vivo, Amaranthus palmeri; details: Select Super 3.5 ml/l
Protocol: The goal of this experiment was to examine the effects of Clethodim (Select Super™) on seed set in A. palmeri female plants. The results of Example 1 provided an initial indication on a reduction in seed set one week after an application of Clethodim. The following experiment tested the effect of Clethodim on seed set when pollination occurs from 1.5 hours to 10 days after treatment with Clethodim.
The experiment was conducted during June-July 2021 at the tests farm of the Tests farm of the Faculty of Agriculture, Rehovot, Israel, Israel. A. palmeri plants were sown in germinating trays. Three weeks after the seedlings had emerged, they were transplanted to 4 L pots with a potting soil mixture. The female plants were separated from the male plants and were grown outside in a location isolated from air-borne pollen. Upon maturation, 6 female plants were selected and divided into 2 groups of 3 plants.
Spraying of the entire plants with either tap water or Select Super™ (3.5 ml/1) using a hand-held 1.5 L sprayer, with enough distance between the groups to prevent contamination.
To test the effect of Clethodim on seed set, the inflorescence of the plants were artificially pollinated. On each time interval, a paper tube with 10 mg of fresh non-irradiated pollen was carefully placed on an inflorescence, leaving it for 20 minutes before removing. […]

[2] = system: A. palmeri male plants; assay: Exp 254: pollen production of male plants after spraying male sterilant agents; type: in vivo, Amaranthus palmeri
Protocol: (§1) The experiment was conducted during April-May 2021 in a net house in Rehovot, Israel. A. palmeri plants were sown in germinating trays. Three weeks after the seedlings had emerged, the male plants were transplanted in the net house. A. palmeri plants were divided into 10 groups of 10 plants, 100 male plants in total. In addition, 30 females, 3 females per treatment, were transplanted in 4 L pots with a potting soil mixture and were grown in a different net house, isolated from male pollen.
Once the male plants had all started to flower, the pollen had been collected daily with a vacuum cleaner. The vacuum cleaner had been mounted with a replaceable filter located ahead of the dust container, thus catching the pollen before it enters the container and improving its collection. A new filter was used for each group, and the filters were kept in a 50 ml tube before the pollen was extracted and weighed in the lab.
(§2) The experiment tested 8 male sterilant agents (Table 2): (1) Triton X-100 (Adama), at label rate, ˜8 times the rate used in experiment I; (2) Tribenuron-Methyl (TBM) (Gadot), 1/100 the rate used in experiment I; (3) 10% Paraffin oil (Life—Superpharm) diluted in Silicon oil 2 cST; (4) E.O.S. (Adama), an insecticide with a physical mode of action, based on petroleum oil; (5) Maleic Hydrazide (Sigma), an Auxin (plant hormone) disruptor known to affect pollen production; (6) Pyrithiobac (IHARA chemical industry co. ltd), an herbicide of the AHAS inhibitors group, regularly used in cotton cultivation to control broadleaf weeds; (7) Diuron (Adama), a herbicide of the Photosystem II inhibitors, regularly used in cotton cultivation; (8) Clethodim (Select Super™ a selective herbicide used to control Gramineae. Another group of plants were treated with water only as control, and another was not treated at all (Blank).
(§3) The treatments were applied using a hand-held sprayer, the females were sprayed first and then the males. ˜650 ml solution was used per treatment for both males and females, except the Paraffin:Silicon oil treatment in which 500 ml was used. The solutions were sprayed on top of the plants except the Diuron that was sprayed directly to the soil and stem, except for one female that was sprayed on top. To activate the Diuron, each plant was watered with 1 L of water.

[3] = system: A. palmeri females; assay: Exp 254: seed set of females pollinated one week after treatment; type: in vivo, Amaranthus palmeri
Protocol: as §1, §3
The experiment aimed to test not just the male sterility properties of the agents but also to examine the effect on the seed set. To do so, one week after treatment, the main inflorescence of each female (except the blank) was pollinated with fresh pollen mixed with talc in 2:1 ratio using a puffer. 70 mg of pollen was applied on each female. Two weeks after pollination the inflorescences were harvested, dried, thrashed and the seeds were counted.

[4] = system: A. palmeri male plants; assay: Exp 275: pollen weight of male plants after male sterilant agents; type: in vivo, Amaranthus palmeri
Protocol: The experiment was conducted during May-June 2021 in a net house in Rehovot, Israel. A. palmeri plants were sown in the net house soil and were grown for over a month before the experiment started. A. palmeri plants were divided into 6 groups of 10 plants, 60 male plants in total.
The plants were mature and produced pollen when the experiment started. The pollen had been collected daily with a vacuum cleaner. The vacuum cleaner had been mounted with a replaceable filter located ahead of the dust container, thus catching the pollen before it enters the container and improving its collection. Pollen was collected for 5 days before the treatment and was continued for 2 weeks afterwards.
The experiment tested 5 male sterilant agents: (I) Silicon oil 2 cST; (II) 2% Paraffin oil (Life—Superpharm) in Silicon oil 2 c/st; (III) 10% Paraffin oil (Life—Superpharm) in Silicon oil 2 cST; (IV) Clethodim (Select Super™), same as in Example 1; (V) Pyrithiobac, at 1/10 the concentration used in experiment II. Another group of plants was not treated at all (Blank).
The treatments were applied using a hand-held sprayer. The solutions were sprayed on top of the plants.

[5] = system: A. palmeri female plants; assay: Exp 313: dose response of Clethodim (Select Super) on seed set; type: in vivo, Amaranthus palmeri; details: for reduction in number of seeds produced in comparison to the control, on average: all time points averaged
Protocol: The goal of this experiment was to examine dose response of Clethodim (Select Super™) treatment and validate the results of Example 3.
The experiment was conducted during September 2021 at the tests farm of the Faculty of Agriculture in Rehovot, Israel. A. palmeri plants were sown in germinating trays. 3 weeks after the seedlings had emerged, they were transplanted to 4 L pots with a potting soil mixture. The female plants were separated from the male plants and were grown outside in a location isolated from air-borne pollen. Upon maturation, 9 female plants were selected and divided into 3 groups of 3 plants.
The experiment tested 2 rates of Select Super™ (Clethodim 120 gr/L-Arysta): (I) Low rate (3.5 ml/1), (II) High rate (7 ml/1). Another group of plants was treated with tap water (Control), [3.5 ml/L treatment=0.42 gr/L in active ingredient, 7 ml/L treatment=0.84 gr/L].
Treatment procedure was conducted as follows: spraying of the entire plants with the different treatments using a hand-held 1.5 L sprayer, with enough distance between the groups to prevent contamination.
To test the effect of Clethodim on seed set, artificial pollinations were conducted in several time intervals following clethodim treatment. On each time interval, 2 inflorescences on each plant were artificially pollinated by placing a paper tube with 10 mg of fresh non-irradiated pollen on the inflorescence and leaving it for 20 minutes before removing. On each time interval a total of 6 inflorescences from 3 female plants were pollinated. The intervals were as follows: 1.5-hour, 1 day, 2 days, 4 days, 7 days, 10 days and 22 days after treatment.

[6] = system: A. palmeri male plants; assay: Exp 321: male sterility agents screening #2, pollen production; type: in vivo, Amaranthus palmeri; details: 7 ml/L (high rate); collection up to 12 DAA
Protocol: The goal of this experiments was to repeat results with Select Super™ (Arysta Lifescience) and test an additional formulation of clethodim to act as a sterilant on A. palmeri male plants.
The experiment was conducted during September-October 2022 in a net house in Rehovot, Israel. A. palmeri plants were sown in germinating trays, 3 weeks after the seedlings had emerged, the male plants were transplanted in the net house. A. palmeri plants were divided into 4 groups of 10 plants each, 40 male plants in total.
Once the male plants had all started to flower, the pollen had been collected daily with a vacuum cleaner in the same manner as described in Example 1. Pollen was collected in specific days following the applications up to 12 DAA.
The experiment tested 2 male sterilant agents: (1) Clethodim (Select Super™, Arysta Lifescience) low rate: 3.5 ml/L and high rate: 7 ml/L, (2) Clethodim (Arrow Super™, Adama) 7 ml/L. Another group of plants were not treated at all and served as a control.
Treatment procedure was conducted as follows: spraying of the entire plants using a hand-held 1.5 L sprayer for a full cover of all plant parts. Each group of plants was sprayed with the tested treatment while keeping enough distance between the groups to prevent contamination.

[7] = system: Amaranthus tuberculatus female plants; assay: Exp 401: clethodim on broadleaf panel, Amaranthus tuberculatus seed set; type: in vivo; details: Select Super 7 ml/L
Protocol: (§4) The goal of this experiment was to examine if ACCase inhibitors can function as a sterilant on other broadleaf families.
(§5) The experiment was conducted during April-June 2022 at the test farm of the Faculty of Agriculture in Rehovot, Israel. The different broad leaf species (Table 5) were sown in germination trays. 3-4 weeks after the seedling had emerged, they were transplanted in 4 L pots with potting soil mixture. Amaranthus tuberculatus female plants were separated from male plants and grown outside in a location isolated from air borne pollen. Upon maturation, 10 plants from each species, except for A. tuberculatus females, were selected and divided into 2 groups (control and treatment). In A. tuberculatus, 8 female plants were used for the testing.
(§6) All the treated plants were sprayed with clethodim (Select Super™, Arysta Lifescience) in 7 ml/L rate while the control group was treated with tap water.
(§7) Treatment procedure was conducted as follows: spraying of the entire plants with the different treatments using electric back sprayer for a full cover, with enough distance between the groups to prevent contamination.
To test the effect of treatment on the seed set, artificial pollinations were conducted 7 days following the clethodim treatment. One spike from each plant was artificially pollinated by placing a paper tube with 10 mg of fresh non-irradiated pollen on the spike and leaving it for 20 minutes before removing. A total of 4 spikes from 4 female plants were pollinated.
(§8) Four, 7 14 and 21 days after treatment, the plants were visually examined carefully to identify possible sterilant effects such as reduction in pollen production, growth delay, damaged flowers, loss of flowers, loss of pods and phytotoxicity. These effects were measured or evaluated and recorded. The average values of each parameter were calculated both for the treated and for the control groups and a statistical analysis was conducted.

[8] = system: Amaranthus tuberculatus male plants; assay: Exp 401: Amaranthus tuberculatus pollen production; type: in vivo; details: Select Super 7 ml/L
Protocol: as §4, §5
(§9) All the treated plants were sprayed with clethodim (Select Super™, Arysta Lifescience) in 7 ml/L rate while the control group was treated with tap water. […]
as §8

[9] = system: Abutilon theophrasti; assay: Exp 401: clethodim on Abutilon theophrasti; type: in vivo; details: Select Super 7 ml/L
Protocol: as §4, §5, §6, §7, §8

[10] = system: Solanum nigrum; assay: Exp 401: clethodim on Solanum nigrum; type: in vivo; details: Select Super 7 ml/L; 15 DAA; p-value 0.0048
Protocol: as §4, §5, §9, §8

[11] = system: A. palmeri females; assay: Exp 254: phytotoxicity of the agents on females; type: in vivo, Amaranthus palmeri; details: 3 females per treatment; concentrations of Table 2; Diuron 5 ml/L, Pyrithiobac 5.4 μL/L
Protocol: as §1
as §2, with “Another group of plants were treated with water only as control, and another was not treated at all (Blank).” left out

[12] = Clethodim 3.5 ml/L, 10% Paraffin in 2 cST
[13] = Clethodim treatment group, FIG. 2
[14] = average of 3 inflorescences, pollinated one week after treatment

For `CCSC(C)CC1CC(=O)C(/C(CC)=N/OC/C=C/Cl)=C(O)C1` (centres unmarked) [Clethodim (Select Super™], the “abortion rate (aborted seeds/total seeds)” value ([1]; vs tap water) was “significantly higher compared to the water control”.
For `CCSC(C)CC1CC(=O)C(/C(CC)=N/OC/C=C/Cl)=C(O)C1` (centres unmarked) [Clethodim], the “pollen weight after treatment relative to the lowest amount collected before treatment” value ([2]; Clethodim 3.5 ml/L) was 1/10, the “duration of the pollen weight reduction / time to get back to pre-treatment weight” value [2, 12] was 14 days and the “onset of the reduction in pollen weight” value [2, 12] was 5 days after treatment. For the same compound, the “onset of pollen production (recovery)” value [2, 13] was 13 DAT, the “period of major reduction in pollen weight” value [2, 13] was 5-8 DAT and the “visible effect / injury to the treated plants” value ([2]; male plants after spraying) was “no apparent injury to the plants; also recorded: no visible effect on the plants”. For the same compound, the “Average Aborted Seeds” value [3, 14] was 80.7 number of seeds, the “Average Abortion Rate (fraction of aborted seeds from the total seed number)” value [3, 14] was 0.17 and the “Average Normal Seeds” value [3, 14] was 349 number of seeds. For the same compound, the “Average Seeds/ mg inflo. (total seed number divided by inflorescence weight)” value [3, 14] was 0.78, the “Average Total Seeds” value [3, 14] was 429.7 number of seeds and the “Average Inflo. Weight” value ([3]; average of 3 inflorescences, pollinated one week after treatment, harvested two weeks later) was 667.3 mg. The “effect on abortion rate compared to the water” value ([3]; compared to H2O treatment) was “no effect”, the “number of seeds per inflorescence mg as % of the water treatment value” ([3]; compared to H2O treatment) was ~70% and the “duration of the reduction in pollen weight” value ([4]; 10% Paraffin oil in Silicon oil 2 cST, Clethodim (Select Super) as in Example 1) was 8 days. For the same compound, the “apparent damage to the plants” value ([4]; in vivo) was “did not cause any apparent damage to the plants”, the “onset of the reduction in pollen weight after application” value ([4]; in vivo) was 5 days and the “reduction in pollen weight compared to the blank” value ([4]; maximum reduction, FIG. 4) was “up to 80%”. For the same compound, the “duration of decreased total seed number after application” value [1] was “at least 10 days”, the “visible effect on the plants” value ([5]; both rates) was “no visible effect on the plants” and the “reduction in number of seeds produced in comparison to the control, on average” value ([5]; high rate 7 ml/l (0.84 gr/L active ingredient)) was 92%. For the same compound, the “reduction in number of seeds produced in comparison to the control, on average” value ([5]; low rate 3.5 ml/l (0.42 gr/L active ingredient)) was 67%, the “reduction in pollen production between day 4 and the end of the experiment” value [6] was 78% and the “visible effect on the plants” value [7] was “no visible effect on the plants other than on the flowering organs”. The “reduction of average seed weight per spike in comparison to the control spikes” value ([7]; pollination 7 days after treatment) was 93%, the “Average total seed weight per spike” value ([7]; pollination 7 days after treatment, 4 spikes from 4 plants) was 13.25 mg and the “duration of the effect on pollen” value [8] was “at least 21 days”. The “onset of the effect on pollen” value [8] was 4 days after treatment, the “time from application to start of Blossom-Drop” value [9] was 7 days and the “reduction in average stem length (main stem)” value ([9]; 15 DAA, p-value *0.0058) was 19%. The “reduction in average pods number in comparison to the control” value ([9]; 15 days after application, p-value *0.0001) was 75% and the “reduction in average total fruit number” value [10] was 35%.
For `CN(C)C(=O)Nc1ccc(Cl)c(Cl)c1` [Diuron], the phytotoxicity on females [11] was “killed all three females”.
In the case of `COc1cc(OC)nc(Sc2cccc(Cl)c2C(=O)O)n1` [Pyrithiobac], the phytotoxicity on females [11] was “chlorosis and growth stunt”.

Source: patent US20240407364A1, “METHODS OF WEED CONTROL” (Weedout Ltd., priority 2021, published 2024)
